Results reported in patent US11884662B2, “N-1 branched cycloalkyl substituted imidazo[4,5-c]quinoline compounds, compositions, and methods” (3M INNOVATIVE PROPERTIES COMPANY, priority 2018, dated 2024).

Tests used:
[1] = tested on: Human peripheral blood mononuclear cells (PBMC); test: Cytokine Induction in Human Cells; type: cell-based; details: 21-24 hours culture, lowest concentration inducing at least 2× negative control; for MEC to Induce Cytokine IFN-alpha: IFN-alpha by ELISA; for MEC to Induce Cytokine IFN-gamma: IFN-gamma by multiplex bead assay; for MEC to Induce Cytokine TNF-alpha: TNF-alpha by multiplex bead assay
Protocol: Cytokine Induction in Human Cells
Whole blood was obtained from healthy human donors and collected by venipuncture into vacutainer tubes or syringes containing EDTA. Human peripheral blood mononuclear cells (PBMC) were purified from the whole blood by density gradient centrifugation. Histopaque 1077 (15 mL, Sigma, St. Louis, MO) was transferred to 6×50 mL sterile polypropylene conical tubes. The Histopaque was overlayed with 15-25 mL of blood diluted 1:2 in Hank's Balanced Salts Solution (HBSS) (Gibco, Life Technologies, Grand Island, NY). The tubes were then centrifuged at 1370 rpm for 30 minutes at 20° C., with no brake (400×g, GH 3.8A Rotor).
The interface (buffy coat) containing the PBMC was collected and placed in a new sterile 50 mL conical polypropylene centrifuge tube. The PBMC were mixed with an equal volume of HBSS (about 20 mL from the interface and about 20 mL of HBSS), and then centrifuged at 1090 rpm, 10 minutes, 20° C., with brake (270×g, GH 3.8A Rotor). After completing centrifugation, the cells were resuspended in 2-3 mL ACK Red blood cell lysis buffer (ammonium chloride potassium solution, Gibco, Life Technologies) and incubated for 2-5 minutes at 20° C. Next, HBSS (40 mL) was added to the cells, and the sample was centrifuged at 270×g for 10 minutes at 20° C. The supernatant was decanted, and the cell pellet was resuspended in 5 mL AIM V Medium (Gibco, Life Technologies). Cell aggregates and debris were removed by filtering the cell solution through a BD Falcon 70 micron nylon cell strainer (BD Biosciences, San Jose, CA).
The number of viable cells was determined by counting with a Miltenyi FACS instrument (Miltenyi Biotec Inc., San Diego, CA) or by using a hemacytometer. For determining cell viability with a hemacytometer, the cells were diluted 1/10 in 0.4% trypan blue and HBSS (specifically, 50 microliter of trypan blue+40 microliter of HBSS+10 microliter of cell solution were added to a microfuge tube and mixed). Ten microliters of the diluted cells were then applied to the hemacytometer, and the number of viable PBMC were determined by microscopy.
The PBMC sample was then resuspended in 96-well plates at a concentration of 8×10^5 cells/well in 0.1 mL of AIM-V medium. Each compound was solubilized in DMSO to create a 3 mM stock solution. The stock solution was then further diluted with AIM-V medium to prepare the serial dilutions. The diluted compound (100 microliters) was then transferred to the PBMCs to achieve a testing set with final compound concentrations of 30, 10, 3.3, 1.1, 0.37, 0.12, 0.04, 0.01 micromolar or a testing set with final compound concentrations of 100, 33.3, 11.1, 3.7, 1.2, and 0.4 micromolar. The plates also had both positive and negative controls. The negative control wells contained only AIM-V medium with no example compound. The positive control wells contained a control set of imiquimod serially diluted to concentrations of 30, 10, 3.3, 1.1, 0.37, 0.12, 0.04, 0.01 micromolar or a control set of imiquimod serially diluted to concentrations of 100, 33.3, 11.1, 3.7, 1.2, and 0.4 micromolar. The concentrations used in the control set were selected to match the concentrations used in the testing set. The plates were then cultured at 37° C./5% CO2 for 21-24 hours. Cell-free supernatants were harvested by centrifuging the 96-well plates at 2100 rpm, 23° C. for 10 minutes. Approximately 160 microliters of the supernatant was then stored in a NUNC 96-well plate, covered with the compression cap and stored at −80° C. until the cytokine analysis was done.
IFN-alpha cytokine levels (picograms/mL) were measured by ELISA (human IFN-alpha, pan specific, Mabtech, Cincinnati, OH). IFN-gamma and TNF-alpha levels (picograms/mL) were measured by multiplex bead assay (magnetic beads, R & D Systems Minneapolis, MN) according to the manufacturer's instructions. […]

[2] = tested on: Human dermal adult fibroblast cells; test: Cell Viability Determination (resazurin); type: cell-based; details: human dermal adult fibroblasts, compound 200 micromolar, 24 hours, normalized to untreated vehicle control, n=3
Protocol: Cell Viability Determination
Each compound was individually dissolved in DMSO and then in Dulbecco's minimum essential cell culture medium (DMEM, Gibco, Life Technologies) containing 10% fetal bovine serum (Corning Life Sciences, Tewksbury, MA) and 1× antibiotic/antimycotic solution. The final DMSO concentration in a 200 micromolar compound concentration was 0.5%.
Human dermal adult fibroblast cells (ATCC, Manassas, VA) were seeded (7,500 cells/wells in a 96-well tissue culture polystyrene plate) in 100 microliters of DMEM cell culture medium containing 10% fetal bovine serum and 1× antibiotic/antimycotic solution. After approximately 18-24 hours of incubation in a humidified environment at 37° C. with 5% CO2, the wells were individually treated with one of the compounds in cell culture medium at a compound concentration of 200 micromolar or with 0.5% DMSO in cell culture medium as the vehicle (untreated) control. The cells were then incubated for 24 hours in a humidified environment at 37° C. with 5% CO2. Cell viability was determined using resazurin according to the procedure described by O'Brien, J. et al., European Journal of Biochemistry, 2000, 267(17): 5421-5426. Cell viability was normalized to the vehicle (untreated) cell control. In Table 14, the mean percent cell viability (n=3) is reported for the compounds of Examples 1, 2, 4, 5 and for 1-[(4-amino-1H-imidazo[4,5-c]quinoline-1-yl)methyl] cyclopentanol (the Comparative Example compound).

| SMILES | MEC to Induce Cytokine IFN-alpha [1] [µM] | MEC to Induce Cytokine IFN-gamma [1] [µM] | MEC to Induce Cytokine TNF-alpha [1] [µM] | Mean Percent Cell Viability [2] [%] |
| --- | --- | --- | --- | --- |
| Nc1nc2ccccc2c2c1ncn2CC1(O)CCCC1 [Comparative Example, 1-[(4-amino-1H-imidazo[4,5-c]quinoline-1-yl)methyl]cyclopentanol, reference compound] | 10 | 10 | 10 | 2.1 |
| C[C@@H](n1cnc2c(N)nc3ccccc3c21)C1(O)CC=CC1 [Example 3, 1-[(1R)-1-(4-aminoimidazo[4,5-c]quinolin-1-yl)ethyl]cyclopent-3-en-1-ol] | 3.3 | 3.3 | 3.3 |  |
| C[C@@H](n1cnc2c(N)nc3ccccc3c21)C1(O)CCCC1 [Example 1, 1-[(1R)-1-(4-aminoimidazo[4,5-c]quinolin-1-yl)ethyl]cyclopentanol] | 3.3 | 3.3 | 3.3 | 80 |
| C[C@H](n1cnc2c(N)nc3ccccc3c21)C1(O)CCCC1 [Example 2, 1-[(1S)-1-(4-aminoimidazo[4,5-c]quinolin-1-yl)ethyl]cyclopentanol] | >30 | >30 | >30 | 81 |
| CC[C@@H](n1cnc2c(N)nc3ccccc3c21)C1(O)CCCCC1 [Example 6, 1-[(1R)-1-(4-aminoimidazo[4,5-c]quinolin-1-yl)propyl]cyclohexanol] | 1.2 | 1.2 | 1.2 |  |
| CC[C@H](n1cnc2c(N)nc3ccccc3c21)C1(O)CCCC1 [Example 5, 1-[(1S)-1-(4-aminoimidazo[4,5-c]quinolin-1-yl)propyl]cyclopentanol] | >30 | >30 | >30 | 78 |
| CC[C@@H](n1cnc2c(N)nc3ccccc3c21)C1(O)CCCC1 [Example 4, 1-[(1R)-1-(4-aminoimidazo[4,5-c]quinolin-1-yl)propyl]cyclopentanol] | 1.1 | 1.1 | 0.37 | 86 |
